According to patent publication US20050202973A1, “Aryl-alkyne compounds as herbicides” (priority 2002, published 2005):

How the values were obtained:
Format in all cases: in vivo
Abutilon (Abut) [1] = experiment: Pre-emergence herbicidal action (Example B1); parameters: key: 1=total damage; 9=no action; Ratings of from 1 to 4 (especially from 1 to 3) indicate good to very good herbicidal action; conditions: 1000 g of active compound per ha; sprayed immediately after sowing; evaluated after 4 weeks; scale of nine ratings (1=total damage, 9=no action)
Protocol: (§1) Monocotyledonous and dicotyledonous test plants are sown in standard soil in pots. Immediately after sowing, the test compounds, in the form of an aqueous suspension (prepared from a wettable powder (Example F3, b) according to WO 97/34485) or in the form of an emulsion (prepared from an emulsifiable concentrate (Example F1, c) according to WO 97/34485), are applied by spraying, in an optimum concentration (500 litres of water per ha). The test plants are then grown in a greenhouse under optimum conditions. After a test duration of 4 weeks, the test is evaluated in accordance with a scale of nine ratings (1=total damage, 9=no action). Ratings of from 1 to 4 (especially from 1 to 3) indicate good to very good herbicidal action. Test plants: Panicum (Pani), Digitaria (Digit), Euphorbia (Euph), Sida, Abutilon (Abut), Amaranthus (Amar), Chenopodium (Cheno), Stellaria (Stell).

Amaranthus (Amar) = experiment: Pre-emergence herbicidal action (Example B1); parameters: key: 1=total damage; 9=no action; Ratings of from 1 to 4 (especially from 1 to 3) indicate good to very good herbicidal action; conditions: 1000 g of active compound per ha; sprayed immediately after sowing; evaluated after 4 weeks; scale of nine ratings (1=total damage, 9=no action)
Protocol: as §1

Chenopodium (Cheno) = experiment: Pre-emergence herbicidal action (Example B1); parameters: key: 1=total damage; 9=no action; Ratings of from 1 to 4 (especially from 1 to 3) indicate good to very good herbicidal action; conditions: 1000 g of active compound per ha; sprayed immediately after sowing; evaluated after 4 weeks; scale of nine ratings (1=total damage, 9=no action)
Protocol: as §1

Digitaria (Digit) = experiment: Pre-emergence herbicidal action (Example B1); parameters: key: 1=total damage; 9=no action; Ratings of from 1 to 4 (especially from 1 to 3) indicate good to very good herbicidal action; conditions: 1000 g of active compound per ha; sprayed immediately after sowing; evaluated after 4 weeks; scale of nine ratings (1=total damage, 9=no action)
Protocol: as §1

Euphorbia (Euph) [2] = experiment: Pre-emergence herbicidal action (Example B1); parameters: key: 1=total damage; 9=no action; Ratings of from 1 to 4 (especially from 1 to 3) indicate good to very good herbicidal action; conditions: 1000 g of active compound per ha; sprayed immediately after sowing; evaluated after 4 weeks; scale of nine ratings (1=total damage, 9=no action)
Protocol: as §1

Panicum (Pani) [3] = experiment: Pre-emergence herbicidal action (Example B1); parameters: key: 1=total damage; 9=no action; Ratings of from 1 to 4 (especially from 1 to 3) indicate good to very good herbicidal action; conditions: 1000 g of active compound per ha; sprayed immediately after sowing; evaluated after 4 weeks; scale of nine ratings (1=total damage, 9=no action)
Protocol: as §1

Sida = experiment: Pre-emergence herbicidal action (Example B1); parameters: key: 1=total damage; 9=no action; Ratings of from 1 to 4 (especially from 1 to 3) indicate good to very good herbicidal action; conditions: 1000 g of active compound per ha; sprayed immediately after sowing; evaluated after 4 weeks; scale of nine ratings (1=total damage, 9=no action)
Protocol: as §1

Stellaria (Stell) [4] = experiment: Pre-emergence herbicidal action (Example B1); parameters: key: 1=total damage; 9=no action; Ratings of from 1 to 4 (especially from 1 to 3) indicate good to very good herbicidal action; conditions: 1000 g of active compound per ha; sprayed immediately after sowing; evaluated after 4 weeks; scale of nine ratings (1=total damage, 9=no action)
Protocol: as §1

Amaranthus (Amara) = experiment: Post-emergence herbicidal action (Example B2); parameters: key: 1=total damage; 9=no action; Ratings of from 1 to 4 (especially from 1 to 3) indicate good to very good herbicidal action; conditions: 1000 g of active compound per ha; post-emergence spray at 2- to 3-leaf stage; evaluated after 2 to 3 weeks; scale 1=total damage, 9=no action
Protocol: (§2) Monocotyledonous and dicotyledonous test plants are sown in standard soil in pots. When the test plants are at the 2- to 3-leaf stage, the test compounds, in the form of an aqueous suspension (prepared from a wettable powder (Example F3, b) according to WO 97/34485) or in the form of an emulsion (prepared from an emulsifiable concentrate (Example F1, c) according to WO 97/34485), are applied by spraying, in an optimum concentration (500 litres of water per ha). The test plants are then grown on in a greenhouse under optimum conditions. After a test duration of 2 to 3 weeks, the test is evaluated in accordance with a scale of nine ratings (1=total damage, 9=no action). Ratings of from 1 to 4 (especially from 1 to 3) indicate good to very good herbicidal action. Test plants. Panicum (Pani), Euphorbia (Euph), Abutilon (Abut), Amaranthus (Amara), Stellaria (Stell), Veronica (Vero).

Euphorbia (Euph) [5] = experiment: Post-emergence herbicidal action (Example B2); parameters: key: 1=total damage; 9=no action; Ratings of from 1 to 4 (especially from 1 to 3) indicate good to very good herbicidal action; conditions: 1000 g of active compound per ha; post-emergence spray at 2- to 3-leaf stage; evaluated after 2 to 3 weeks; scale 1=total damage, 9=no action
Protocol: as §2

Panicum (Pani) [6] = experiment: Post-emergence herbicidal action (Example B2); parameters: key: 1=total damage; 9=no action; Ratings of from 1 to 4 (especially from 1 to 3) indicate good to very good herbicidal action; conditions: 1000 g of active compound per ha; post-emergence spray at 2- to 3-leaf stage; evaluated after 2 to 3 weeks; scale 1=total damage, 9=no action
Protocol: as §2

Stellaria (Stell) [7] = experiment: Post-emergence herbicidal action (Example B2); parameters: key: 1=total damage; 9=no action; Ratings of from 1 to 4 (especially from 1 to 3) indicate good to very good herbicidal action; conditions: 1000 g of active compound per ha; post-emergence spray at 2- to 3-leaf stage; evaluated after 2 to 3 weeks; scale 1=total damage, 9=no action
Protocol: as §2

Veronica (Vero) = experiment: Post-emergence herbicidal action (Example B2); parameters: key: 1-9 scale: 1 = total damage, 9 = no action; conditions: 1000 g of active compound per ha; post-emergence spray at 2- to 3-leaf stage; evaluated after 2 to 3 weeks; scale 1=total damage, 9=no action
Protocol: as §2

Abutilon (Abut) [8] = experiment: Post-emergence herbicidal action (Example B2); parameters: key: 1=total damage; 9=no action; Ratings of from 1 to 4 (especially from 1 to 3) indicate good to very good herbicidal action; conditions: 1000 g of active compound per ha; post-emergence spray at 2- to 3-leaf stage; evaluated after 2 to 3 weeks; scale 1=total damage, 9=no action
Protocol: as §2

SMILES: N#CCc1cc(C#CCOc2ncc(Cl)cn2)ccc1F [Compound 7.022]
- Pre-emergence herbicidal action rating, Abut (Abutilon (Abut) [1]): 1
- Pre-emergence herbicidal action rating, Amar (Amaranthus (Amar)): 1
- Pre-emergence herbicidal action rating, Cheno (Chenopodium (Cheno)): 3
- Pre-emergence herbicidal action rating, Digit (Digitaria (Digit)): 1
- Pre-emergence herbicidal action rating, Euph (Euphorbia (Euph) [2]): 3
- Pre-emergence herbicidal action rating, Pani (Panicum (Pani) [3]): 1
- Pre-emergence herbicidal action rating, Sida (Sida): 1
- Pre-emergence herbicidal action rating, Stell (Stellaria (Stell) [4]): 1
- Post-emergence herbicidal action rating, Amar (Amaranthus (Amara)): 1
- Post-emergence herbicidal action rating, Euph (Euphorbia (Euph) [5]): 1
- Post-emergence herbicidal action rating, Pani (Panicum (Pani) [6]): 2
- Post-emergence herbicidal action rating, Stell (Stellaria (Stell) [7]): 3
- Post-emergence herbicidal action rating, Vero (Veronica (Vero)): 2

SMILES: COc1cncnc1OCC#Cc1cccc(CC#N)c1 [Compound 5.025, {3-[3-(5-methoxy-pyrimidin-4-yloxy)-prop-1-ynyl]-phenyl}-acetonitrile]
- Post-emergence herbicidal action rating, Abut (Abutilon (Abut) [8]): 1
- Post-emergence herbicidal action rating, Amar (Amaranthus (Amara)): 4
- Post-emergence herbicidal action rating, Euph (Euphorbia (Euph) [5]): 1
- Post-emergence herbicidal action rating, Pani (Panicum (Pani) [6]): 2
- Post-emergence herbicidal action rating, Stell (Stellaria (Stell) [7]): 1
- Post-emergence herbicidal action rating, Vero (Veronica (Vero)): 4

SMILES: N#CCc1cc(C#CCOc2ncc(Cl)cn2)c(F)cc1F [7.031]
- Post-emergence herbicidal action rating, Abut (Abutilon (Abut) [8]): 3
- Post-emergence herbicidal action rating, Amar (Amaranthus (Amara)): 2
- Post-emergence herbicidal action rating, Euph (Euphorbia (Euph) [5]): 3
- Post-emergence herbicidal action rating, Pani (Panicum (Pani) [6]): 2
- Post-emergence herbicidal action rating, Stell (Stellaria (Stell) [7]): 3
- Post-emergence herbicidal action rating, Vero (Veronica (Vero)): 2

SMILES: N#CCc1cccc(C#CCOc2ncc(F)cn2)c1 [7.008]
- Post-emergence herbicidal action rating, Abut (Abutilon (Abut) [8]): 2
- Post-emergence herbicidal action rating, Amar (Amaranthus (Amara)): 2
- Post-emergence herbicidal action rating, Euph (Euphorbia (Euph) [5]): 2
- Post-emergence herbicidal action rating, Pani (Panicum (Pani) [6]): 2
- Post-emergence herbicidal action rating, Stell (Stellaria (Stell) [7]): 2
- Post-emergence herbicidal action rating, Vero (Veronica (Vero)): 2

SMILES: N#CCc1cc(C#CCOc2ncc(F)cn2)ccc1F [7.027]
- Post-emergence herbicidal action rating, Abut (Abutilon (Abut) [8]): 4
- Post-emergence herbicidal action rating, Amar (Amaranthus (Amara)): 2
- Post-emergence herbicidal action rating, Euph (Euphorbia (Euph) [5]): 2
- Post-emergence herbicidal action rating, Pani (Panicum (Pani) [6]): 1
- Post-emergence herbicidal action rating, Stell (Stellaria (Stell) [7]): 3
- Post-emergence herbicidal action rating, Vero (Veronica (Vero)): 4

SMILES: N#CCc1cccc(C#CCOc2ncc(Br)cn2)c1 [Compound 7.006]
- Pre-emergence herbicidal action rating, Abut (Abutilon (Abut) [1]): 2
- Pre-emergence herbicidal action rating, Cheno (Chenopodium (Cheno)): 1
- Pre-emergence herbicidal action rating, Euph (Euphorbia (Euph) [2]): 1
- Pre-emergence herbicidal action rating, Pani (Panicum (Pani) [3]): 2
- Pre-emergence herbicidal action rating, Stell (Stellaria (Stell) [4]): 1
- Post-emergence herbicidal action rating, Abut (Abutilon (Abut) [8]): 3
- Post-emergence herbicidal action rating, Amar (Amaranthus (Amara)): 2
- Post-emergence herbicidal action rating, Euph (Euphorbia (Euph) [5]): 1
- Post-emergence herbicidal action rating, Pani (Panicum (Pani) [6]): 5
- Post-emergence herbicidal action rating, Stell (Stellaria (Stell) [7]): 4
- Post-emergence herbicidal action rating, Vero (Veronica (Vero)): 5

SMILES: COc1nc(C)ncc1OCC#Cc1cccc(CC#N)c1 [4.033]
- Post-emergence herbicidal action rating, Abut (Abutilon (Abut) [8]): 3
- Post-emergence herbicidal action rating, Amar (Amaranthus (Amara)): 3
- Post-emergence herbicidal action rating, Euph (Euphorbia (Euph) [5]): 2
- Post-emergence herbicidal action rating, Pani (Panicum (Pani) [6]): 2
- Post-emergence herbicidal action rating, Stell (Stellaria (Stell) [7]): 2
- Post-emergence herbicidal action rating, Vero (Veronica (Vero)): 4

SMILES: COc1nc(Cl)cnc1OCC#Cc1cccc(CC#N)c1 [Compound 1.041, {3-[3-(5-chloro-3-methoxy-pyrazin-2-yloxy)-prop-1-ynyl]-phenyl}-acetonitrile]
- Pre-emergence herbicidal action rating, Abut (Abutilon (Abut) [1]): 1
- Pre-emergence herbicidal action rating, Amar (Amaranthus (Amar)): 1
- Pre-emergence herbicidal action rating, Cheno (Chenopodium (Cheno)): 1
- Pre-emergence herbicidal action rating, Digit (Digitaria (Digit)): 1
- Pre-emergence herbicidal action rating, Euph (Euphorbia (Euph) [2]): 1
- Pre-emergence herbicidal action rating, Pani (Panicum (Pani) [3]): 1
- Pre-emergence herbicidal action rating, Sida (Sida): 1
- Pre-emergence herbicidal action rating, Stell (Stellaria (Stell) [4]): 1
- Post-emergence herbicidal action rating, Abut (Abutilon (Abut) [8]): 2
- Post-emergence herbicidal action rating, Amar (Amaranthus (Amara)): 2
- Post-emergence herbicidal action rating, Euph (Euphorbia (Euph) [5]): 1
- Post-emergence herbicidal action rating, Pani (Panicum (Pani) [6]): 2
- Post-emergence herbicidal action rating, Stell (Stellaria (Stell) [7]): 2
- Post-emergence herbicidal action rating, Vero (Veronica (Vero)): 2

SMILES: N#CCc1cccc(C#CCOc2ncc(Cl)cn2)c1 [7.021]
- Post-emergence herbicidal action rating, Abut (Abutilon (Abut) [8]): 2
- Post-emergence herbicidal action rating, Amar (Amaranthus (Amara)): 1
- Post-emergence herbicidal action rating, Euph (Euphorbia (Euph) [5]): 1
- Post-emergence herbicidal action rating, Pani (Panicum (Pani) [6]): 2
- Post-emergence herbicidal action rating, Stell (Stellaria (Stell) [7]): 3
- Post-emergence herbicidal action rating, Vero (Veronica (Vero)): 3

SMILES: N#CCc1ccc(F)c(C#CCOc2ncc(Cl)cn2)c1 [7.028]
- Post-emergence herbicidal action rating, Amar (Amaranthus (Amara)): 1
- Post-emergence herbicidal action rating, Euph (Euphorbia (Euph) [5]): 1
- Post-emergence herbicidal action rating, Stell (Stellaria (Stell) [7]): 1
- Post-emergence herbicidal action rating, Vero (Veronica (Vero)): 2

SMILES: COc1nccnc1OCC#Cc1cccc(CC#N)c1 [Compound 1.048]
- Pre-emergence herbicidal action rating, Abut (Abutilon (Abut) [1]): 1
- Pre-emergence herbicidal action rating, Amar (Amaranthus (Amar)): 1
- Pre-emergence herbicidal action rating, Cheno (Chenopodium (Cheno)): 1
- Pre-emergence herbicidal action rating, Digit (Digitaria (Digit)): 2
- Pre-emergence herbicidal action rating, Euph (Euphorbia (Euph) [2]): 1
- Pre-emergence herbicidal action rating, Pani (Panicum (Pani) [3]): 4
- Pre-emergence herbicidal action rating, Sida (Sida): 1
- Pre-emergence herbicidal action rating, Stell (Stellaria (Stell) [4]): 1
- Post-emergence herbicidal action rating, Abut (Abutilon (Abut) [8]): 3
- Post-emergence herbicidal action rating, Amar (Amaranthus (Amara)): 1
- Post-emergence herbicidal action rating, Euph (Euphorbia (Euph) [5]): 1
- Post-emergence herbicidal action rating, Pani (Panicum (Pani) [6]): 4
- Post-emergence herbicidal action rating, Stell (Stellaria (Stell) [7]): 2
- Post-emergence herbicidal action rating, Vero (Veronica (Vero)): 2
